Source: publication PMC9599461, “Stereoselectivity in the Membrane Transport of Phenylethylamine Derivatives by Human Monoamine Transporters and Organic Cation Transporters 1, 2, and 3” (Biomolecules, 2022)

Key:
SERT [1] = molecular target: T1, SERT (Homo sapiens, UniProt P31645); assay: in vitro;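 also: uptake into HEK293 cells stably expressing human SERT over 2 min, enantiomers measured in cell lysate by chiral HPLC-MS/MS, normalized to total protein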
Description: (§1) All transport experiments were carried out in HEK293 cells stably overexpressing human MATs or OCTs. […] All cells were regularly cultivated in DMEM supplemented with 10% (v/v) FCS, penicillin (100 U/mL) and streptomycin (100 μg/mL)and kept in culture for no longer than 30 passages.
(§2) For the uptake experiments, 300,000 cells were plated in poly-D-lysine precoated 24-well plates 48 h ahead of the transport experiment. On the day of experiment, cells were initially washed once with 37 °C pre-warmed HBSS+ (Hanks buffered salt solution supplemented with 10 mM HEPES) and subsequently incubated with the substrates dissolved in pre-warmed HBSS+ for exactly two minutes. Incubation was stopped by adding ice-cold HBSS+ followed by two washing steps. After this, cells were lysed with 80% acetonitrile containing 10 ng/mL milnacipran as internal standard for high-performance liquid chromatography coupled to tandem mass spectrometry (HPLC-MS/MS) analysis. For every experiment, two additional wells per cell line were lysed using RIPA buffer for protein quantification. Total protein was quantified using the bicinchoninic acid assay [42]. This was later used for normalization of the uptake data.
(§3) Intracellularly accumulated test substances were quantified by HPLC-MS/MS analysis using a Shimadzu Nexera HPLC system with a SIL-30AC autosampler, a CTO-20AC column oven, a LC-30AD pump, and a CBM-20A controller (Shimadzu, Kyoto, Japan). […] CBH HPLC column (100 × 3 mm inner dimension with 5 μM particle size; Sigma-Aldrich, Darmstadt, Germany) with a corresponding 10 × 3 mm guard column. Reversed phased chromatography was carried out using an ammonium acetate (NH4Ac) buffered aqueous mobile phase with isopropyl alcohol (IPA) as organic solvent. […] The order of elution of the enantiomers was obtained from available reference literature [43] or by applying enantiopure reference compounds to the chiral HPLC.
(§4) Detection was performed with an API 4000 tandem mass spectrometer (AB SCIEX, Darmstadt, Germany) operating in multiple-reaction-monitoring mode. Quantification was performed using the Analyst 1.6.2 software (AB SCIEX, Darmstadt, Germany) and quantified by comparison to standard curves with known concentrations.
(§5) All uptake data were normalized to protein content to account for variation in the number of seeded sells. Transporter-mediated net uptake was calculated by subtracting uptake into empty vector-transfected control cells from uptake into transporter-transfected cells. […] Vmax refers to the maximum transport velocity and Km is defined as the substance concentration required to reach half of vmax. The intrinsic clearance Clint was calculated as the quotient of vmax over Km.

SERT [2] = molecular target: T1, SERT; assay: Stereoselective uptake into SERT-overexpressing HEK293 cells; conditions: SERT; for Clint ± SEM: quotient of vmax over Km; for Stereoselectivity Vmax / Stereoselectivity Km: ratio between enantiomers; for Stereoselectivity Vmax: given as for (S) or for 2; for Stereoselectivity Km: given as for (S) or for 2 (second-eluting);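 as to all read-outs here: uptake into HEK293 cells stably expressing human SERT over 2 min, enantiomers measured in cell lysate by chiral HPLC-MS/MS, normalized to total protein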
Description: as §1, §2, §3, §4, §5

OCT1 = molecular target: T2, OCT1 (Homo sapiens, UniProt O15245); assay: Stereoselective uptake into OCT1-overexpressing HEK293 cells; conditions: OCT1; for Clint ± SEM: quotient of vmax over Km; for selectivity ratio at 2 min: human, ratio between enantiomers;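 as to all read-outs here: enantiomers quantified inside cells by chiral HPLC-MS/MS, uptake normalized to total protein from bicinchoninic acid assay, substrates applied in HBSS+ buffer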
T2 sequence (O15245 1-554): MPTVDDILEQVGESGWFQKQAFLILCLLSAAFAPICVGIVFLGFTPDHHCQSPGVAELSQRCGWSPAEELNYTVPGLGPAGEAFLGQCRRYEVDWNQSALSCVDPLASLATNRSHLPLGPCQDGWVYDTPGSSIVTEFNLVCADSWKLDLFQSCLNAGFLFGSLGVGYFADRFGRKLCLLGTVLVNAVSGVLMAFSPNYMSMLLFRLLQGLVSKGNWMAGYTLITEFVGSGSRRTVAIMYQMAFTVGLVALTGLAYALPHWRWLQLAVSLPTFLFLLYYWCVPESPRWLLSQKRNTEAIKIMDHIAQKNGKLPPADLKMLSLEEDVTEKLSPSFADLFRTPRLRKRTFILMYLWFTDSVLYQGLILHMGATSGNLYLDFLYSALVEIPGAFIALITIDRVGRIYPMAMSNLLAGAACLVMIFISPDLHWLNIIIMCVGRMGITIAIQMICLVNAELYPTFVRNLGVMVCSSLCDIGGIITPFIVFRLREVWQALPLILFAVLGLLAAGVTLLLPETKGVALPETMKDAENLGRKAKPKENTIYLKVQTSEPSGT

NET = NET (Homo sapiens, UniProt P23975); assay: Stereoselective uptake into NET-overexpressing HEK293 cells; conditions: for Clint ± SEM / Stereoselectivity Vmax / Stereoselectivity Km: NET; for Clint ± SEM: quotient of vmax over Km; for Stereoselectivity Vmax / Stereoselectivity Km: ratio between enantiomers; for Stereoselectivity Vmax: given as for (R) or for 1; for Stereoselectivity Km: given as for (S) or for 2 (second-eluting); for selectivity ratio at 2 min: human;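 as to all read-outs here: intracellular enantiomers quantified in cell lysates by chiral HPLC-MS/MS after a 2 min substrate incubation, with uptake normalized to total cellular protein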
Sequence of NET (P23975 whole entry): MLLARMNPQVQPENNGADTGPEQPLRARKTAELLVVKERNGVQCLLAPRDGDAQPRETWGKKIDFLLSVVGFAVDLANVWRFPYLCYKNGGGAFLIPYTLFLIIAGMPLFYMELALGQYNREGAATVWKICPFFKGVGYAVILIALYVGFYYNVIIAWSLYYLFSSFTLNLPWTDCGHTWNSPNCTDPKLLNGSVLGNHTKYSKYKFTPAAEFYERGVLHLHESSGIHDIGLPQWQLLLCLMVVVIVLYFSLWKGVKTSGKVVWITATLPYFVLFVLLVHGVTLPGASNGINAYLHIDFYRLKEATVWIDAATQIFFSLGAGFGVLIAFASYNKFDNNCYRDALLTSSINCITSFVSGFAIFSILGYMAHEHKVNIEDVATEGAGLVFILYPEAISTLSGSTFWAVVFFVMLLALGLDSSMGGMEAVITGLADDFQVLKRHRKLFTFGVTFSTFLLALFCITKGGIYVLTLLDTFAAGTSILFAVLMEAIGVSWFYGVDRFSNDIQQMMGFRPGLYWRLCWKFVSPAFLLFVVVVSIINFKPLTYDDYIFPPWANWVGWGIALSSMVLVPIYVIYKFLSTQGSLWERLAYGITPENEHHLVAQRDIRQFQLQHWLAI

DAT = DAT (Homo sapiens, UniProt Q01959); assay: Stereoselective uptake into DAT-overexpressing HEK293 cells; conditions: for Clint ± SEM / Stereoselectivity Vmax / Stereoselectivity Km: DAT; for Clint ± SEM: quotient of vmax over Km; for Stereoselectivity Vmax / Stereoselectivity Km: ratio between enantiomers; for Stereoselectivity Vmax: given as for (R) or for 1; for Stereoselectivity Km: given as for (S) or for 2 (second-eluting); for selectivity ratio at 2 min: human;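 as to all read-outs here: intracellular accumulation measured by chiral HPLC-MS/MS in stably transfected HEK293 cells, normalized to total protein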
Sequence of DAT (Q01959 whole entry): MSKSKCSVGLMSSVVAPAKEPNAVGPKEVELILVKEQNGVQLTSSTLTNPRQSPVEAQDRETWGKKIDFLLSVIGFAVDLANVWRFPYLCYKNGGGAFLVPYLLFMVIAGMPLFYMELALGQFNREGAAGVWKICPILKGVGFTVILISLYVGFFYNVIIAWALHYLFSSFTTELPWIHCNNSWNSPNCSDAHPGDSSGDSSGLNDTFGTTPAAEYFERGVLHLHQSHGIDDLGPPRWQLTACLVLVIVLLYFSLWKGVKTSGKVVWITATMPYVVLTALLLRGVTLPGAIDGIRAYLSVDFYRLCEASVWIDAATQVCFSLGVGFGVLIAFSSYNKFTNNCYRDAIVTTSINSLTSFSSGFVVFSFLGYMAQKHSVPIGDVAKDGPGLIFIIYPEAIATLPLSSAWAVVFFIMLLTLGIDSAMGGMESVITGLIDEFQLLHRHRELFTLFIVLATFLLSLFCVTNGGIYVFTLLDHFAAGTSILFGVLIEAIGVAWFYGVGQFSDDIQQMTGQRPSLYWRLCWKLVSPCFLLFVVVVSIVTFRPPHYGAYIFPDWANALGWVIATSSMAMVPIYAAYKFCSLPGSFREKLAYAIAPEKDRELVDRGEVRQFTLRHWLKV

OCT3 = molecular target: T3, OCT3 (Homo sapiens, UniProt O75751); assay: Stereoselective uptake into OCT3-overexpressing HEK293 cells; conditions: for Clint ± SEM / Stereoselectivity Vmax / Stereoselectivity Km: OCT3; for Clint ± SEM: quotient of vmax over Km; for Stereoselectivity Vmax / Stereoselectivity Km: ratio between enantiomers; for Stereoselectivity Vmax: given as for (R) or for 1; for Stereoselectivity Km: given as for (R) or for 1 (first-eluting); for selectivity ratio at 2 min: human;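 as to all read-outs here: intracellular accumulation in HEK293 cells measured by chiral HPLC-MS/MS after a 2 min substrate exposure at 37 °C, uptake normalized to total protein (bicinchoninic acid assay)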
T3 sequence (O75751 1-556): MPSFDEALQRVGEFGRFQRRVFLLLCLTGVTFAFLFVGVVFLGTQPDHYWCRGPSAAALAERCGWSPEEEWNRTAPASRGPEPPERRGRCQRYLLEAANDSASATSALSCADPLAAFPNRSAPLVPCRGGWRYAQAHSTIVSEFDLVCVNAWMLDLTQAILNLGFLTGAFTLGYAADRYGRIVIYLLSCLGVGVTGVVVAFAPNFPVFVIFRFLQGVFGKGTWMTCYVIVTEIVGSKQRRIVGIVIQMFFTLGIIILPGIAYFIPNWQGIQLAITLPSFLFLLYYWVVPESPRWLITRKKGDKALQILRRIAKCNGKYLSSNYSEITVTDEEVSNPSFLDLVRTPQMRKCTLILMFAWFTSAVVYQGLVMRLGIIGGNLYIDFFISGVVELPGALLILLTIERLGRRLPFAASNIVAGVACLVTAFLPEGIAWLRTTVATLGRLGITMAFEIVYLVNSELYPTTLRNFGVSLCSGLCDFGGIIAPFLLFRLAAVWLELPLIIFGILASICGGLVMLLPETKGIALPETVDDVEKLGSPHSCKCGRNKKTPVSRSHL

[3] = system: OCT2 wild-type versus A270S variant; assay: in vitro; conditions: human, Transporter selectivity, OCT2 wild-type versus A270S, 100 μM racemic substance, two minutes; given as for WT
Description: as §1, §2
(§6) Intracellularly accumulated test substances were quantified by HPLC-MS/MS analysis using a Shimadzu Nexera HPLC system with a SIL-30AC autosampler, a CTO-20AC column oven, a LC-30AD pump, and a CBM-20A controller (Shimadzu, Kyoto, Japan). Stereoselective chromatography was carried out on a [sequence] CBH HPLC column (100 × 3 mm inner dimension with 5 μM particle size; Sigma-Aldrich, Darmstadt, Germany) with a corresponding 10 × 3 mm guard column. Reversed phased chromatography was carried out using an ammonium acetate (NH4Ac) buffered aqueous mobile phase with isopropyl alcohol (IPA) as organic solvent. […] The order of elution of the enantiomers was obtained from available reference literature [43] or by applying enantiopure reference compounds to the chiral HPLC. […] However, in every other case where the order of elution was available, the (R)-enantiomer eluted first. Given the structural similarity of the investigated substances and the fact that separation was performed on the same column with almost identical mobile phases, we assume that this order of elution for our compound set is always the (R)- before the (S)-enantiomer.
as §4
(§7) All uptake data were normalized to protein content to account for variation in the number of seeded sells. Transporter-mediated net uptake was calculated by subtracting uptake into empty vector-transfected control cells from uptake into transporter-transfected cells. Kinetic parameters were then determined after non-linear regression following the Michaelis–Menten equation (v = vmax × [S]/(Km + [S])) using GraphPad Prism (Version 5.01 for Windows, GraphPad Software, La Jolla, CA, USA). Vmax refers to the maximum transport velocity and Km is defined as the substance concentration required to reach half of vmax. The intrinsic clearance Clint was calculated as the quotient of vmax over Km.
(§8) HEK293 cells stably overexpressing wild-type or mutant OCT2 were incubated with 100 μM racemic substance for two minutes.

OCT2 = molecular target: T4, OCT2 (Homo sapiens, UniProt O15244); assay: Stereoselective uptake into OCT2 (wild-type)-overexpressing HEK293 cells; conditions: OCT2; for Clint ± SEM: quotient of vmax over Km; for selectivity ratio at 2 min: human, ratio between enantiomers
T4 sequence (O15244 1-555 S270A): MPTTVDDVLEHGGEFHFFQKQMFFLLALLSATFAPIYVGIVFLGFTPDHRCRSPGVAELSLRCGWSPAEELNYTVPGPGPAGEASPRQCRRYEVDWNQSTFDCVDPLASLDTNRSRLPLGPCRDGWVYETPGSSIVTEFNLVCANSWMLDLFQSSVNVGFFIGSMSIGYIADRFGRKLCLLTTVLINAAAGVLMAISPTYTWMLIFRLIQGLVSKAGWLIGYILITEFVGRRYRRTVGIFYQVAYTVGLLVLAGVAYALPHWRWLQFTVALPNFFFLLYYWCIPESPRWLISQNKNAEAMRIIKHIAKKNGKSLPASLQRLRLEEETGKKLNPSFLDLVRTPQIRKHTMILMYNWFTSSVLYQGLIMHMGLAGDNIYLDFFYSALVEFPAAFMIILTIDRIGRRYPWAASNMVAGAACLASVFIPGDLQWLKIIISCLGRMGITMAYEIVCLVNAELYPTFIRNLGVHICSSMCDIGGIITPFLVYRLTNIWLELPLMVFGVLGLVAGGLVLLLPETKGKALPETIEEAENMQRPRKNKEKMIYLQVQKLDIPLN

OCT2 A270S variant = assay: in vitro; conditions: human, Stereoselectivity OCT2_A270S, 100 μM racemic substance, two minutes; uptake ratio of enantiomers, given as for (R)
Description: as §1, §2, §6, §4, §7, §8

OCT2 (wild-type) = molecular target: T5, OCT2 (wild-type) (Homo sapiens, UniProt O15244); assay: Stereoselective uptake into OCT2 (wild-type)-overexpressing HEK293 cells; conditions: human, Stereoselectivity OCT2_WT, 100 μM racemic substance, two minutes; uptake ratio of enantiomers, given as for (R)
T5 sequence (O15244 1-555 S270A): T4 sequence (O15244 1-555 S270A)

[4] = Stereoselectivity ClInt, given as for (R) or for 1 (also 1.00-fold for 1/2)
[5] = Stereoselectivity Km, given as for (S) or for 2 (second-eluting)
[6] = Stereoselectivity Vmax, given as for (R) or for 1
[7] = Stereoselectivity ClInt, given as for (S) or for 2
[8] = Stereoselectivity Km, given as for (R) or for 1 (first-eluting)

T1 sequence (P31645 whole entry): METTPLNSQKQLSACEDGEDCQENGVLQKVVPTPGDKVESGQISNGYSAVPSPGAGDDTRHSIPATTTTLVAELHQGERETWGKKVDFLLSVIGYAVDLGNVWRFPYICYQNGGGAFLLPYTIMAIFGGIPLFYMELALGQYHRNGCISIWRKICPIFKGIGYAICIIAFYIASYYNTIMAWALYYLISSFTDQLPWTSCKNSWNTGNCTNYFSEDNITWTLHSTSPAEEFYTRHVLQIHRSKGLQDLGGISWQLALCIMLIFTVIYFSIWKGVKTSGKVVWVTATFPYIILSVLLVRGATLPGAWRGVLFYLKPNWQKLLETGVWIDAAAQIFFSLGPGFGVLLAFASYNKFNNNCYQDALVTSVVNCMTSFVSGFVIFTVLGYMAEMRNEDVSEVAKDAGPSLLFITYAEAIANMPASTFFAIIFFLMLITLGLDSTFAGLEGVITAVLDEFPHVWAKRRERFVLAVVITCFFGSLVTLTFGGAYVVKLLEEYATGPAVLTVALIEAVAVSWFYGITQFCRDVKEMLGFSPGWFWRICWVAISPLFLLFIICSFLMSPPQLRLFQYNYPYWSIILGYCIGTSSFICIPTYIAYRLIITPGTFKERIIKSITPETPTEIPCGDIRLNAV

## CNC[C@@H](O)c1ccc(O)cc1 [(S)-Synephrine]
SERT [1]
  selectivity ratio: 1.13
SERT [2]
  Clint ± SEM: 0.61 mL × g Protein^−1 × min^−1
  Stereoselectivity Vmax: 1.35 fold
  Stereoselectivity Km: 1.52 fold
OCT1
  Clint ± SEM: 12.1 mL × g Protein^−1 × min^−1
OCT1; [4]
  selectivity ratio at 2 min: 1.73
OCT1; [5]
  selectivity ratio at 2 min: 1.28
OCT1; [6]
  selectivity ratio at 2 min: 1.35
NET
  Clint ± SEM: 7.92 mL × g Protein^−1 × min^−1
  Stereoselectivity Vmax: 1.80 fold
  Stereoselectivity Km: 2.61 fold
  selectivity ratio at 2 min: 4.7
DAT
  Clint ± SEM: 10.4 mL × g Protein^−1 × min^−1
  Stereoselectivity Vmax: 1.84 fold
  Stereoselectivity Km: 1.21 fold
  selectivity ratio at 2 min: 2.23
OCT3
  Clint ± SEM: 27.8 mL × g Protein^−1 × min^−1
  Stereoselectivity Vmax: 1.05 fold
  Stereoselectivity Km: 1.11 fold
  selectivity ratio at 2 min: 1.06
[3]
  selectivity ratio at 2 min, 100 μM: 1.2
OCT2
  Clint ± SEM: 24.8 mL × g Protein^−1 × min^−1
OCT2; [7]
  selectivity ratio at 2 min: 1.01
OCT2; [8]
  selectivity ratio at 2 min: 2.07
OCT2; [6]
  selectivity ratio at 2 min: 2.05

## CNC[C@H](O)c1ccc(O)cc1 [(R)-Synephrine]
SERT [1]
  selectivity ratio: 1.13
SERT [2]
  Clint ± SEM: 0.69 mL × g Protein^−1 × min^−1
  Stereoselectivity Vmax: 1.35 fold
  Stereoselectivity Km: 1.52 fold
OCT1
  Clint ± SEM: 21.0 mL × g Protein^−1 × min^−1
OCT1; [4]
  selectivity ratio at 2 min: 1.73
OCT1; [5]
  selectivity ratio at 2 min: 1.28
OCT1; [6]
  selectivity ratio at 2 min: 1.35
NET
  Clint ± SEM: 37.3 mL × g Protein^−1 × min^−1
  Stereoselectivity Vmax: 1.80 fold
  Stereoselectivity Km: 2.61 fold
  selectivity ratio at 2 min: 4.7
DAT
  Clint ± SEM: 23.1 mL × g Protein^−1 × min^−1
  Stereoselectivity Vmax: 1.84 fold
  Stereoselectivity Km: 1.21 fold
  selectivity ratio at 2 min: 2.23
OCT3
  Clint ± SEM: 26.3 mL × g Protein^−1 × min^−1
  Stereoselectivity Vmax: 1.05 fold
  Stereoselectivity Km: 1.11 fold
  selectivity ratio at 2 min: 1.06
[3]
  selectivity ratio at 2 min, 100 μM: 1.41
OCT2
  Clint ± SEM: 24.6 mL × g Protein^−1 × min^−1
OCT2; [7]
  selectivity ratio at 2 min: 1.01
OCT2; [8]
  selectivity ratio at 2 min: 2.07
OCT2; [6]
  selectivity ratio at 2 min: 2.05

## CNCC(O)c1ccc(O)c(OC)c1 (stereo not drawn) [Metanephrine]
OCT2 A270S variant
  selectivity ratio at 2 min, 100 μM: 2.26
OCT2 (wild-type)
  selectivity ratio at 2 min, 100 μM: 2.78

## CNCC(O)c1ccccc1 (stereo not drawn) [Halostachine]
OCT2 A270S variant
  selectivity ratio at 2 min, 100 μM: 1.32
OCT2 (wild-type)
  selectivity ratio at 2 min, 100 μM: 1.42
